This is an account of results in US20110071289A1, “AMINOPYRAZOLE AMIDE DERIVATIVE” (DAINIPPON SUMITOMO PHARMA CO., LTD., priority 2007, published 2011).

Experiment [1] deals with cortisone reducing activity of cultured human adipocytes. Description: Inhibitory activity assay for cortisone reducing activity of cultured human adipocytes. The format is cell-based. As to conditions: 100 nM [1,2-3H] cortisone, 37° C. for 3 hours. The procedure: Normal human proadipocytes (HPrAD-vis, Cambrex) were inoculated on 48 well plate, and differentiated according to a protocol attached to a kit. Media for cells on 9-11th day of differentiation were changed to 0.2 ml of D-MEM media (GIBCO, Inc.) containing 100 nM [1,2-^3H] cortisone (1 μCi/well, Muromati Yakuhin), 0.5% DMSO, test compound (DMSO only for test compound-addition districts and test compound additive-free districts). After incubation at 37° C. for 3 hours, all media were collected. As background districts, cell additive-free media were used. Media were mixed with ethyl acetate (0.1 ml) in Eppendorf tube. The mixture was vortexed, and then centrifuged at 5,000 rpm×1 minute at room temperature to separate ethyl acetate (upper layer). Ethyl acetate (10 μl) was spotted on aluminum plate for thin-layer chromatography (silica gel 60 angstrom, Merck, referred to as TLC plate hereinafter). To a sealed vessel was added chloroform/methanol (90:10, v/v) as an eluent, and TLC plate was developed and then dried at room temperature. To the dried TLC plate was exposed an imaging plate (TR-2040, FUJIFILM) over 16 or more hours. After exposure, the imaging plate was analyzed by Bioimage analyzer (BAS2500, FUJIFILM), and [^3H] radioactivity of the spot corresponding to cortisol on TLC plate was determined Inhibitory activities of cortisone reducing activities of test compounds were calculated as below.
(Inhibitory activity (%))=100×((Test compound additive-free districts)−(Test compound-addition districts))/((Test compound additive-free districts)−(Background districts))
IC50 values were calculated by a linear regression of logarithmic values of analyte concentrations and inhibitory activity values using 2-point data wherein inhibitory activities indicated values around 50%. […] IC50 values for human adipocyte cortisone reducing activities of the following inventive compounds were determined

The target in a further experiment is T1, human 11βHSD1 (Homo sapiens, UniProt P28845).
T1 construct: made in house; host or cells: CHO-K1 cells stably transfected with pCMV-Tag 2B plasmid; pellet after ultracentrifugation at 100,000 g
Description: Measurement of human 11βHSD1 inhibitory activity (HTRF cortisol detection). It is filed as biochemical. To be noted: human 11βHSD1 enzyme fraction, 20 nM cortisone, 37° C. for 2 hours. The text has this: A sequence containing ORF of human 11βHSD1 gene (GenBank Accession No. BC012593) was amplified according to PCR technique which was one of conventional methods, and digested by a restriction enzyme BamHI/XhoI. 2 kb of DNA fragments obtained from agarose gels were inserted into pCMV-Tag 2B plasmids (Stratagene) according to a conventional method. The plasmids prepared in Escherichia coli in large amounts were transformed into CHO-K1 cells, and then cells stably expressing human 11βHSD1 genes were selected by medium containing 400 μg/ml G-418 solution (GIBCO, Inc.) containing media. The resulting stably expressing cells were incubated up to −90% confluent in F-12 medium (Nacalai Tesque, Inc.) containing 10% charcoal-dextran treated fetal bovine serum (Hyclone), 1% penicillin-streptomycin (Nacalai Tesque, Inc.) and 400 μg/ml G-418. The resultant cells were treated by tripsin, and the obtained cells were suspended in the above media (1 L) and seeded in cell stack 10 chamber (Corning) in total amounts. The mixture was incubated in CO2 incubator (5% CO2, 37° C.) for 4-5 days, and then treated by tripsin. Total amounts of the obtained cells were washed with PBS buffer (GIBCO, Inc.), and stored at −80° C. […]
A test compound and cortisone (Sigma) was diluted with buffer (50 mM HEPES pH7.3, 150 mM NaCl, 1 mM EDTA) to prepare a substrate solution containing a test compound (50 mM HEPES pH7.3, 150 mM NaCl, 1 mM EDTA, 1 mM NADPH, 20 nM cortisone) (2% DMSO solution), and the solution was added to 384-well low-volume plate (manufactured by Greiner, No. 3782086) in 4 μl/well. […] After the enzyme reaction, the produced cortisol was detected by Homogeneous time-resolved fluorescence (HTRF) to determine enzyme inhibitory activities. […] A fluorescence intensity was determined by 2120 EnVision® Multilabel counter (PerkinElmer) to calculate enzyme inhibitory activities from 2 wavelengths of fluorescence intensity ratios (665 nm/620 nm).
Each inhibitory activity (%) of each test compound was calculated from the average value (%) of inhibitory activities of 4 wells under the same condition. […]
On the technique in general: In TR-FRET formats the signal depends on donor and acceptor labels being close together.

T1 sequence (P28845 whole entry): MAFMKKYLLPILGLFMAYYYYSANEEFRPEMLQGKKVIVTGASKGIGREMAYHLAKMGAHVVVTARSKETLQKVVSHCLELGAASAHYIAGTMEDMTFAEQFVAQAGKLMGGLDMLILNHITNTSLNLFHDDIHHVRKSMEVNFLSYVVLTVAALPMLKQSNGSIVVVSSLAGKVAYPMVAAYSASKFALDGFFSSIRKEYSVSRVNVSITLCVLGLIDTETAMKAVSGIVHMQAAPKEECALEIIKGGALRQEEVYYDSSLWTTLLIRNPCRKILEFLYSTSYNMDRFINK

The compound `COc1ccc(C2(N(C)c3c(Cl)c(C(=O)NC4C5CC6CC4CC(C(N)=O)(C6)C5)nn3C)CC2)cc1` (stereo not drawn) [Example 22, N-[(E)-5-(Aminocarbonyl)-2-adamantyl]-4-chloro-5-[[1-(4-methoxyphenyl)cyclopropyl](methyl)amino]-1-methyl-1H-pyrazole-3-carboxamide] displayed an IC50 in experiment [1] of 1.8 nM.

Compound `CN(CC1CCN(c2ccc(C#N)cn2)CC1)c1c(Cl)c(C(=O)N[C@H]2C3CC4CC2C[C@](O)(C4)C3)nn1C` [Example 166, 4-Chloro-5-[{[1-(5-cyanopyridin-2-yl)piperidin-4-yl]methyl}(methyl)amino]-N-[(E)-5-hydroxy-2-adamantyl]-1-methyl-1H-pyrazole-3-carboxamide] returned an IC50 in experiment [1] (Adipocyte) of 6.4 nM.

For `CN(CC1CC1)c1cc(C(=O)N[C@H]2C3CC4CC2C[C@](C(N)=O)(C4)C3)nn1C` [Example 15, N-[(E)-5-Carbamoyladamantan-2-yl]-5-[(cyclopropylmethyl)(methyl)amino]-1-methyl-1H-pyrazole-3-carboxamide], on human 11βHSD1, the concentration for half-maximal inhibition (IC50) was 39 nM.

`CC(C)N(C)c1cc(C(=O)N[C@H]2C3CC4CC2C[C@](C(N)=O)(C4)C3)nn1C` [Example 8, N-[(E)-5-Carbamoyladamantan-2-yl]-5-[isopropyl(methyl)amino]-1-methyl-1H-pyrazole-3-carboxamide] displayed an IC50 in experiment [1] (Adipocyte) of 8.7 nM.

In turn, `CN(c1cc(C(=O)N[C@H]2C3CC4CC2C[C@](C(N)=O)(C4)C3)nn1C)C1CCC1` [Example 19, N-[(E)-5-Carbamoyladamantan-2-yl]-5-[cyclobutyl(methyl)amino]-1-methyl-1H-pyrazole-3-carboxamide] registered an IC50 on human 11βHSD1 of 25 nM.

For the compound `CN(C)c1c(Cl)c(C(=O)N[C@H]2C3CC4CC2C[C@](C(N)=O)(C4)C3)nn1C` [Example 11, N-[(E)-5-Carbamoyladamantan-2-yl]-4-chloro-5-(dimethylamino)-1-methyl-1H-pyrazole-3-carboxamide], on human 11βHSD1, the IC50 turned out to be 32 nM. The IC50 values of the last two compounds are within 1.5-fold of each other.

Usually IC50 stands for the concentration at which inhibition is half-maximal.
